Data from paper PMC11503492, “Activity-Based DNA-Encoded Library Screening for Selective Inhibitors of Eukaryotic Translation” (ACS Central Science, 2024).
“Also recorded” adds a separate entry of the source.

Key:
[1] = tested on: RPL27[1:32]-GFP translation; assay: WG IVTT activity assay, RPL27[1:32]-GFP template; assay type: biochemical, wheat germ
Description: A commercially available wheat germ lysate (WG) IVTT system was employed to assay translation inhibition. Translation activity was detected via a GFP reporter, and the assay was miniaturized to picoliter-scale microfluidic droplets (Figure 1A,B). […] PCSK9 and RPL27 were truncated to the first 33 and 32 amino acids, respectively (PCSK9[1:33] and RPL27[1:32]). The sequences contain distinct PF846 stall sites and were both fused to a GFP reporter. The GFP reporter and a frameshift mutant of PCSK9[1:33] (PCSK9-FS[1:33]), which mutates the nascent chain sequence while maintaining a nearly identical mRNA sequence, were included as negative controls.[13] […] The WG IVTT assay was miniaturized using a previously described microfluidic circuit modified for longer incubation times (Figure S1)[27] using PF846 as a positive control compound, and assay statistical quality was calculated (Z′=0.7) (Figure 1E). […] Assay statistical quality using PC-HygB positive control beads was similarly calculated (Z′ = 0.75, Figure 1H). […]
429 of encoding region identifiers was then determined using a UMI aggregation algorithm; […]
433 manually determined threshold (10) were discarded. […]
440 progress was immediately monitored (λex = 480 nm, λem = 530 nm, 27 °C, 2 h). […]
441 tive activity was calculated using the slope of fluorescence increase over time (at 15–30 […]
Figure S11. […] Compound 8 (black) and PF846 (gray) were analyzed […]

[2] = tested on: MST1[1:39]-GFP translation; assay: WG IVTT activity assay, MST1[1:39]-GFP template; assay type: biochemical, wheat germ; settings: WG IVTT dose-response
Method: page 21: 421 region sequences were matched to an alpha numeric DNA region identifier (11[…], respectively), while allowing a 1-bp mutation per encoding region. 423 No insertions or deletions were tolerated. […] A sum of UMI counts for all remaining unique combinations 429 of encoding region identifiers was then determined using a UMI aggregation algorithm; 430 1 bp mutations were considered the same UMI. Encoding region identifiers were then 431 converted to library BB identifiers per the library design with an associated UMI count. 432 Any encoding region/ bead-specific barcode combinations with a UMI count below a 433 manually determined threshold (10) were discarded. The remaining ”valid beads” were 434 aggregated by cycle 1/2 BB combinations and the number of unique encoding regions 435 observed for each BB combination defined the k-class for that BB combination.S8 436 Microplate IVTT Assays 437 Wheat germ lysate IVTT plate assays were prepared as 5 μL reactions. […] Template (1 μL) was added and reaction 440 progress was immediately monitored (λex = 480 nm, λem = 530 nm, 27 °C, 2 h). […] activity was calculated using the slope of fluorescence increase over time (at 15-30 442 min post reaction initiation) for compound samples relative to that of the DMSO vehicle 443 control. […]

[3] = tested on: PCSK9[1:33]-GFP in vitro transcription; assay: PCSK9[1:33]-GFP T7 in vitro transcription reaction, agarose gel; assay type: biochemical; settings: PCSK9[1:33]-GFP T7 transcription, 1.5% agarose gel
Method: Figure S10. Activity of compounds 8 and 9 on transcription. (A) Screening hits 8 and 9 were analyzed in dose-response IVTT activity assays of PCSK9[1:33]-GFP initiated with DNA (black) and RNA (gray) template. (B) Products of PCSK9[1:33]-GFP T7 transcription reactions incubated with DMSO, screening hits 8 and 9, or PF846 were visualized on a 1.5% agarose gel
(1 picture or pasted object on this page, not shown here)

SMILES	activity on RPL27[1:32]-GFP translation (in words) [1]	activity on MST1[1:39]-GFP translation (in words) [2]	effect on in vitro transcription product (in words) [3]
Cc1cccc2ccnc(N(C(=O)[C@H]3CCCN(C(=O)c4cccc5c(C#N)c[nH]c45)C3)[C@@H]3CCCNC3)c12 [Compound 8]	most active	inactive	
Cc1cccc2ccnc(N(C(=O)C3CCN(C(=O)c4cccc5c(C#N)c[nH]c45)CC3)[C@@H]3CCCNC3)c12 [Compound 9]			no visible transcript product; also recorded: completely eliminates RNA yield; also recorded: nonselectively inhibits transcription
